Data set [1] concerns the target CYP3A4 (Homo sapiens (Human), UniProt P08684). The experiment in a line: CYP3A4 MBI and enzyme inactivation clearance evaluation. It counts as in vitro ADME. The note with it: human liver microsome; for Factor of change in IC50 value: by pre-incubation with NADPH, MBI action when 2-fold or greater; for microsomal CLint: liver microsomes, probe midazolam or testosterone. As for the experimental part:
The effect and mode of inhibition of the test compound on CYP3A4 were evaluated using a human liver microsome as an enzyme source and midazolam or testosterone as a substrate. […] The IC50 value was calculated from a concentration plot.

In data set [2] the test system is ES-2 cells. The experiment in a line: Cell growth suppression experiment. It is filed as cell-based. The note with it: for IC50: Homo sapiens, 48 h, cultured for 2 days, read-out: IC50 (cell growth suppression, ranking); for cell growth suppression effect (in words): compared with prexasertib. As for the experimental part: ES-2 cells were obtained from the American Type Culture Collection (ATCC). These cells were cultured at 37° C. in the presence of 5% CO2 in a 10% fetal bovine serum, […] penicillin/streptomycin containing McCoy's 5a medium.
500 cells were seeded for each well in a 384-well plate, and the evaluated compound was added so that the final concentration of DMSO would be 0.1% to culture the cells for 2 days. After completion of the culture, the cell viability rate was calculated using CellTiter-Glo® 3D Reagent (Promega, G968B).

The target in data set [3] is CHK1 (Homo sapiens (Human), UniProt O14757). The experiment in a line: CHK1 inhibitory activity test (IMAP TR-FRET). It is filed as biochemical. The note with it: for effect of suppressing CHK1 activity (in words): compared with prexasertib; for inhibition at 0.0001 µM: read-out: CHK1 inhibition % at 0.1 nM. On the procedure:
IMAP TR-FRET Screening Express Kit (R8160) was obtained from Molecular Devices. […] FAM-PKAtide (R7255, Molecular Devices) and FAM-Phospho-PKAtide (R7304, Molecular Devices) were admixed after dilution, and calibration standard systems for phosphorylation levels from 0 to 100% were created. 5 μL of a compound dissolved in a 0.4% DMSO solution was added to a 384 well plate. A compound study group to which 5 μL of each of CHK1, CHK1tide, and ATP was added, and a standard group to which 20 μL of standard was added were created, and subjected to a kinase reaction for 3 hours at 30° C. Subsequently, 60 μL of Binding Reagent (80% Buffer A, 20% Buffer B, 1:600 Binding Reagent, 1:400 Tb-Donor) was added for a binding reaction for 2 hours at room temperature.

Data set [4] has as its target hERG current (Homo sapiens (Human), UniProt Q12809). The experiment in a line: hERG current blocking test. The note with it: for hERG/CHK1: IC50 of hERG divided by IC50 of CHK1 inhibition of Test Example 1; for IC50: read-out: hERG inhibition IC50, hERG stably expressing CHO cells, Qube384. For orientation: The hERG channel carries a current that helps repolarise heart muscle cells.
Experimental: The test compounds were added to cultured hERG (human Ether-a-go-go Related Gene) gene stably expressing CHO cell line cells to achieve 0.27 to 100 μM.

Broadly, the IC50 is the midpoint of a concentration-inhibition curve. The inhibition is the relative decrease from the control value, in per cent. The term microsomal CLint denotes the rate of metabolic loss divided by the concentration. Low readings indicate slow turnover, high ones rapid turnover.

A value given as a limit tells only on which side of the number the result lay.

Chain of CYP3A4 (P08684 whole entry): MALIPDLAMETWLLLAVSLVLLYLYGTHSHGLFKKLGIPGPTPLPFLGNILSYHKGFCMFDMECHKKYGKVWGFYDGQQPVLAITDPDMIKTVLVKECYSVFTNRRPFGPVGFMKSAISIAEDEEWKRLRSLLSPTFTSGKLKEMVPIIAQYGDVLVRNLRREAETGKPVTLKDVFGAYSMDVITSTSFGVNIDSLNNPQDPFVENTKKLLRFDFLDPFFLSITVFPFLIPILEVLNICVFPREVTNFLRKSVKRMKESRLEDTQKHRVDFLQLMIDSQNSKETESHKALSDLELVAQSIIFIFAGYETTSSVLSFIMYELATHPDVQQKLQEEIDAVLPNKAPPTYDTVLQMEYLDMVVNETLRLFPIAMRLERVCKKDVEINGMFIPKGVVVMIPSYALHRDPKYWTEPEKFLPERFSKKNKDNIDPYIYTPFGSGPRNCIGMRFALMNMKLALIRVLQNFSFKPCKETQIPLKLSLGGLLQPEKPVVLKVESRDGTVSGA
Chain of hERG current (Q12809 whole entry): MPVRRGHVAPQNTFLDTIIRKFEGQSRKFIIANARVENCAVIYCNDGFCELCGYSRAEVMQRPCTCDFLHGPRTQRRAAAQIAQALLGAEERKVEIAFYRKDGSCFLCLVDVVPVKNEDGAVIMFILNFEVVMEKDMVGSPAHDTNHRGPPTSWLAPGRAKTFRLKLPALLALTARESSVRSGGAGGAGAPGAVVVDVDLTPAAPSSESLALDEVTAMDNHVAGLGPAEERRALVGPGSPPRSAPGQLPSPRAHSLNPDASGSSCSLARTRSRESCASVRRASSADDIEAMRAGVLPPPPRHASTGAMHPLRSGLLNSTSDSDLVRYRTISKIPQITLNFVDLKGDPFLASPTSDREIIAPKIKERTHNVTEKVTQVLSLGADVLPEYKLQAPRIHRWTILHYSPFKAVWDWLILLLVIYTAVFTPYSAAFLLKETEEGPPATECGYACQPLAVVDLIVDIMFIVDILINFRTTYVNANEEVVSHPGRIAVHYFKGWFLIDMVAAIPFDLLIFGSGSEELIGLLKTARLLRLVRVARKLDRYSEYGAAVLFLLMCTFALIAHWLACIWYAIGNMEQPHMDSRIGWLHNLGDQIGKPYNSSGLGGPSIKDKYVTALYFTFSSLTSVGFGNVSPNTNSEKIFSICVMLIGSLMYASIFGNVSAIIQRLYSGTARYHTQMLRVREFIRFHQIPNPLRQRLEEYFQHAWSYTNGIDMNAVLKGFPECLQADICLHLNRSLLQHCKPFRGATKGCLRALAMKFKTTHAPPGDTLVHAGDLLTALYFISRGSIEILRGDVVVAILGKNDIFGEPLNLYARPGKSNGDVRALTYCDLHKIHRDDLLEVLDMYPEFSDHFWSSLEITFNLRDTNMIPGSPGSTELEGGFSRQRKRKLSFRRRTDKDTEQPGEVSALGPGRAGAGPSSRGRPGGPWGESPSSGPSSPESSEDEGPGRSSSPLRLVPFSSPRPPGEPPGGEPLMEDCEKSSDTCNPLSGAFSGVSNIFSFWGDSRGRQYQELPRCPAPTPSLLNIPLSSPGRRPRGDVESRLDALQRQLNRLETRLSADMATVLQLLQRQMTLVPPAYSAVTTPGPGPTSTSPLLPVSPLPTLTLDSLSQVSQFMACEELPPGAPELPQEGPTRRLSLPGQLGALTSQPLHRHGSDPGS
Chain of CHK1 (O14757 whole entry): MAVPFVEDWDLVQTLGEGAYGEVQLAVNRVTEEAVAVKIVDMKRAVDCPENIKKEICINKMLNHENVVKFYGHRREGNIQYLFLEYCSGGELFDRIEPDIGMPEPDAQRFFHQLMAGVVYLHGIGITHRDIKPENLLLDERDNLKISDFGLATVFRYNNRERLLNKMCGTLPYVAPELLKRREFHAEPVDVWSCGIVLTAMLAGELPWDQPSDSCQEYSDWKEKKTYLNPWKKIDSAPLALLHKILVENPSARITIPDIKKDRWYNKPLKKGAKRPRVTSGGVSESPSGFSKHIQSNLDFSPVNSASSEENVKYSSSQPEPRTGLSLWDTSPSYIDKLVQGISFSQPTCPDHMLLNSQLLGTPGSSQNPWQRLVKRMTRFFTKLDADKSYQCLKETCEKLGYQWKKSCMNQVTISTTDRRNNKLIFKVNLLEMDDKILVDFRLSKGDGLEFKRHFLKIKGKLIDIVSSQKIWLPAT

For the molecule `COc1cncc(OC[C@H](F)CN)c1-c1cc(Nc2cnc(C#N)cn2)n[nH]1` [Example 30, 5-[(5-{3-[(2R)-3-amino-2-fluoropropoxy]-5-methoxypyridin-4-yl}-1H-pyrazol-3-yl)amino]pyrazine-2-carbonitrile], the “Factor of change in IC50 value” in data set [1] is “Not Detected”. Moreover, in data set [2], the IC50 was less than 30 nM and the “cell growth suppression effect (in words)” value is on record as “excellent cell growth suppression effect that is equivalent to that of prexasertib”. For the same molecule, in data set [3], the “effect of suppressing CHK1 activity (in words)” value was “more potent effect of suppressing CHK1 activity than prexasertib” and the inhibition at 0.0001 µM came to 28%. The molecule further showed a hERG/CHK1 in data set [4] of 40000.
In the case of `COc1ccnc(OCC2(CN)CC2)c1-c1cc(Nc2cnc(C#N)cn2)n[nH]1` [Example 37, 5-{[5-(2-{[1-(aminomethyl)cyclopropyl]methoxy}-4-methoxypyridin-3-yl)-1H-pyrazol-3-yl]amino}pyrazine-2-carbonitrile], in data set [1], the “Factor of change in IC50 value” is reported as “Not Detected” and the “inhibition of CYP3A4 based on MBI (in words)” value is “do not exhibit inhibition of CYP3A4 based on MBI”. Also, in data set [2], the IC50 was less than 30 nM and the “cell growth suppression effect (in words)” value is reported as “excellent cell growth suppression effect that is equivalent to that of prexasertib”. In data set [3], the “effect of suppressing CHK1 activity (in words)” value is on record as “more potent effect of suppressing CHK1 activity than prexasertib” and the inhibition at 0.0001 µM was 18%. Besides, in data set [4], the hERG/CHK1 is less than 8438 and the IC50 is less than 2700 nM.
With `COc1cncc(OC[C@@H](F)CN)c1-c1cc(Nc2cnc(C#N)cn2)n[nH]1` [Example 29, 5-[(5-{3-[(2S)-3-amino-2-fluoropropoxy]-5-methoxypyridin-4-yl}-1H-pyrazol-3-yl)amino]pyrazine-2-carbonitrile], in data set [1], the “Factor of change in IC50 value” is listed as “Not Detected” and the microsomal CLint is 0.054 µL/min/mg. In data set [2], the IC50 was less than 30 nM and the “cell growth suppression effect (in words)” value is on record as “excellent cell growth suppression effect that is equivalent to that of prexasertib”. In data set [4], this molecule gave a hERG/CHK1 of 18667.
Take `COc1ccnc(OCCCN)c1-c1cc(Nc2cnc(C(F)(F)F)cn2)n[nH]1` [Example 16, N-{5-[2-(3-aminopropoxy)-4-methoxypyridin-3-yl]-1H-pyrazol-3-yl}-5-(trifluoromethyl)pyrazin-2-amine]: the IC50 in data set [2] was 300 to 1000 nM. For the same molecule, the inhibition at 0.0001 µM in data set [3] is less than 5%. Also, in data set [4], the hERG/CHK1 is on record as less than 888 and the IC50 is less than 2700 nM.
As for `COc1cncc(OC[C@@]2(F)CCNC2)c1-c1cc(Nc2cnc(C#N)cn2)n[nH]1` [Example 22, (R)-5-[(5-{3-[(3-fluoropyrrolidin-3-yl)methoxy]-5-methoxypyridin-4-yl}-1H-pyrazol-3-yl)amino]pyrazine-2-carbonitrile], the microsomal CLint in data set [1] came to 0.349 µL/min/mg. Also, in data set [2], the IC50 is less than 30 nM and the “cell growth suppression effect (in words)” value is on record as “excellent cell growth suppression effect that is equivalent to that of prexasertib”. For the same molecule, in data set [3], the “effect of suppressing CHK1 activity (in words)” value is on record as “more potent effect of suppressing CHK1 activity than prexasertib” and the inhibition at 0.0001 µM worked out at 22%. In addition, the hERG/CHK1 in data set [4] is recorded as 12500.
Regarding `COc1cncc(OC[C@H]2CNCCO2)c1-c1cc(Nc2cnc(C#N)cn2)n[nH]1` (stereo in doubt) [Example 13, 5-[(5-{3-methoxy-5-[(morpholin-2-yl)methoxy]pyridin-4-yl}-1H-pyrazol-3-yl)amino]pyrazine-2-carbonitrile], the microsomal CLint in data set [1] is 0.484 µL/min/mg. Besides, in data set [2], the IC50 is 300 to 1000 nM. Besides, the inhibition at 0.0001 µM in data set [3] stood at 6%. In data set [4], the hERG/CHK1 is listed as less than 3649 and the IC50 is less than 2700 nM.
In the case of `COc1cncc(OC[C@@H]2CNCCO2)c1-c1cc(Nc2cnc(C#N)cn2)n[nH]1` (stereo in doubt) [Example 12, 5-[(5-{3-methoxy-5-[(morpholin-2-yl)methoxy]pyridin-4-yl}-1H-pyrazol-3-yl)amino]pyrazine-2-carbonitrile], in data set [1], the microsomal CLint worked out at 0.287 µL/min/mg. Besides, the IC50 in data set [2] was in the range of 100 to 300 nM. In data set [3], the “effect of suppressing CHK1 activity (in words)” value is listed as “more potent effect of suppressing CHK1 activity than prexasertib” and the inhibition at 0.0001 µM turned out to be 21%. Moreover, in data set [4], the hERG/CHK1 was found to be 9118.
Regarding `COc1ncnc(OCCCN)c1-c1cc(Nc2cnc(C#N)cn2)n[nH]1` [Example 17, 5-({5-[4-(3-aminopropoxy)-6-methoxypyrimidin-5-yl]-1H-pyrazol-3-yl}amino)pyrazine-2-carbonitrile], in data set [2], the IC50 is less than 30 nM and the “cell growth suppression effect (in words)” value is on record as “excellent cell growth suppression effect that is equivalent to that of prexasertib”. Moreover, in data set [3], the IC50 stood at 0.3 nM, the “effect of suppressing CHK1 activity (in words)” value is reported as “more potent effect of suppressing CHK1 activity than prexasertib” and the inhibition at 0.0001 µM amounted to 24%.
For `COc1nccc(OCC2(CN)CC2)c1-c1cc(Nc2cnc(C#N)cn2)n[nH]1` [Example 38, 5-{[5-(4-{[1-(aminomethyl)cyclopropyl]methoxy}-2-methoxypyridin-3-yl)-1H-pyrazol-3-yl]amino}pyrazine-2-carbonitrile], in data set [2], the IC50 was less than 30 nM and the “cell growth suppression effect (in words)” value was “excellent cell growth suppression effect that is equivalent to that of prexasertib”. The inhibition at 0.0001 µM in data set [3] was less than 5%.
`COc1cncc(O[C@H](C)C2CNC2)c1-c1cc(Nc2cnc(C#N)cn2)n[nH]1` [Example 33, 5-[(5-{3-[(1R)-1-(azetidin-3-yl)ethoxy]-5-methoxypyridin-4-yl}-1H-pyrazol-3-yl)amino]pyrazine-2-carbonitrile]: in data set [2], the IC50 was less than 30 nM and the “cell growth suppression effect (in words)” value is recorded as “excellent cell growth suppression effect that is equivalent to that of prexasertib”. Moreover, the inhibition at 0.0001 µM in data set [3] was less than 5%.
Turning to `COc1cncc(OCC2CNC2)c1-c1cc(Nc2cnc(C#N)cn2)n[nH]1` [Example 18, 5-({5-[3-(azetidin-3-yl)methoxy-5-methoxypyridin-4-yl]-1H-pyrazol-3-yl}amino)pyrazine-2-carbonitrile], the IC50 in data set [2] was 30 to 100 nM. In data set [3], the “effect of suppressing CHK1 activity (in words)” value is recorded as “more potent effect of suppressing CHK1 activity than prexasertib” and the inhibition at 0.0001 µM is less than 5%.
With `COc1ncnc(OCC2(CN)CC2)c1-c1cc(Nc2cnc(C#N)cn2)n[nH]1` [Example 23, 5-{[5-(4-{[1-(aminomethyl)cyclopropyl]methoxy}-6-methoxypyrimidin-yl)-1H-pyrazol-3-yl]amino}pyrazine-2-carbonitrile], the IC50 in data set [2] is less than 30 nM. Also, the inhibition at 0.0001 µM in data set [3] was less than 5%.
On to `COc1cncc(OCC2(CN)CC2)c1-c1cc(Nc2cnc(C#N)cn2)n[nH]1` [Example 11, 5-{[5-(3-{[1-(aminomethyl)cyclopropyl]methoxy}-5-methoxypyridin-4-yl)-1H-pyrazol-3-yl]amino}pyrazine-2-carbonitrile], for which, in data set [2], the IC50 is less than 30 nM and the “cell growth suppression effect (in words)” value is “excellent cell growth suppression effect that is equivalent to that of prexasertib”. In data set [3], the “effect of suppressing CHK1 activity (in words)” value is listed as “more potent effect of suppressing CHK1 activity than prexasertib” and the inhibition at 0.0001 µM amounted to 35%.
Regarding `COc1cncc(OCC[C@@H](C)N)c1-c1cc(Nc2cnc(C#N)cn2)n[nH]1` [Example 9, 5-[(5-{3-[(3R)-3-aminobutoxy]-5-methoxypyridin-4-yl}-1H-pyrazol-3-yl)amino]pyrazine-2-carbonitrile], the IC50 in data set [2] was in the range of 30 to 100 nM. In data set [3], the “effect of suppressing CHK1 activity (in words)” value is recorded as “more potent effect of suppressing CHK1 activity than prexasertib” and the inhibition at 0.0001 µM worked out at 24%.
As to `COc1cncc(OC[C@H]2CCNC2)c1-c1cc(Nc2cnc(C#N)cn2)n[nH]1` [Example 21, (S)-5-[(5-{3-methoxy-[5-(pyrrolidin-3-yl)methoxy]pyridin-4-yl}-1H-pyrazol-3-yl)amino]pyrazine-2-carbonitrile], in data set [2], the IC50 was less than 30 nM and the “cell growth suppression effect (in words)” value is listed as “excellent cell growth suppression effect that is equivalent to that of prexasertib”. Further, in data set [3], the “effect of suppressing CHK1 activity (in words)” value is recorded as “more potent effect of suppressing CHK1 activity than prexasertib” and the inhibition at 0.0001 µM was 15%.

Values taken from patent US11564920B2, “5-heteroaryl-1H-pyrazol-3-amine derivative” (Sumitomo Pharma Co., Ltd., priority 2020, dated 2023).
